Measured values as given in US20220112192A1, “COMPOUNDS AND METHODS OF USE THEREOF FOR TREATMENT OF CANCER” (ARAXES PHARMA LLC, priority 2018, published 2022).

Each compound was assayed against T1, KRAS G12C 1-169, his-tagged protein, GDP-loaded (Homo sapiens, UniProt P01116, G12C) (assay: Biochemical assay: covalent modification of KRAS G12C measured by mass spectrometry). Conditions: modification of KRAS G12C at 10 minutes.
T1 construct: KRAS G12C 1-169, his-tagged protein, GDP-loaded
Format: binding
Experimental: Test compounds were prepared as 10 mM stock solutions in DMSO (Fisher cat #BP-231-100). KRAS G12C 1-169, his-tagged protein, GDP-loaded was diluted to 2 μM or 0.5 μM in buffer (20 mM Hepes, 150 mM NaCl, 1 mM MgCl2).
Compounds were tested for activity as follows: Compounds were diluted to 50× final test concentration in DMSO in 96-well storage plates. Compound stock solutions were vortexed before use and observed carefully for any sign of precipitation. Dilutions were as follow: • For 100 μM final compound concentration, compounds were diluted to 5000 μM (5 μL 10 mM compound stock+5 μL DMSO and mixed well by pipetting. • For 30 μM final compound concentration, compounds were diluted to 1500 μM (3 μL 10 mM compound stock+17 μL DMSO) and mixed well by pipetting. • For 10 μM final compound concentration, compounds were diluted to 500 μM (2 μL 10 mM compound stock+38 μL DMSO) and mixed well by pipetting. 49 μL of the stock protein solution was added to each well of a 96-well PCR plate (Fisher cat #1423027). 1 μL of the diluted 50× compounds were added to appropriate wells in the PCR plate using 12-channel pipettor. Reactions were mixed carefully and thoroughly by pipetting up/down with a 200 μL multi-channel pipettor. The plate was sealed well with aluminum plate seal, and stored in drawer at room temperature for 10 minutes, 30 minutes, 2 hours or 24 hours. 5 μL of 2% formic acid (Fisher cat #A117) in de-ionized H2O was then added to each well followed by mixing with a pipette. The plate was then resealed with aluminum seal and stored on dry ice until analyzed as described below.
The above described assays are analyzed by mass spectrometry according to one of the following two procedures:
The MS instrument was set to positive polarity, 2 GHz resolution, and low mass (1700) mode and allowed to equilibrate for 30 minutes. The instrument was then calibrated, switched to acquisition mode and the appropriate method loaded.
After another 30 minute equilibration time, a blank batch (i.e., buffer) was run to ensure equipment is operating properly. The samples are thawed at 37° C. for 10 minutes, briefly centrifuged, and transferred to the bench top. Wells A1 and H12 were spiked with 1 μL 500 μM internal standard peptide, and the plates centrifuged at 2000×g for 5 minutes. The method was then run and masses of each individual well recorded.
The masses (for which integration data is desired) for each well were pasted into the platemap and exported from the analysis. Masses for the internal standards were exported as well. The data at 50 ppm was extracted for the +19 charge state, and identity of well A1 was assigned using the internal standard spike and integrated. Peak data was exported as a TOF list and the above steps are repeated individually, for the +20, 21, 22, 23, 24, and 25 charge states.
? -Exactive Assay:
The masses and peak intensities of KRAS G12C protein species were measured using a Dionex RSLCnano system (Thermo Scientific) connected to a Q Exactive Plus mass spectrometer (Thermo Scientific). […] of sample was each loaded onto a Aeris™ […] WIDEPORE C4 200 Å, LC Column 50×2.1 mm column maintained at 40° C. at a flow rate of 600 μL/min with 20% Solvent A (0.1% formic acid in H2O) and […] (0.1% formic acid in acetonitrile). The liquid chromatography conditions were 20% solvent B for 1 minute, 20% to 60% solvent B for 1.5 minutes, 60% to 90% solvent for 0.5 minute, 90% solvent B for 0.2 minute, 90% to 20% solvent B for 0.2 minute, and then equilibrated for 1.6 minutes before the following sample injection. The flow rate was maintained at 600 μL/min throughout sample analysis.
The mass spectrometer was operated in profile mode at a resolution of 17500, 5 microscans, using 50 msec max injection time and an AGC target of 1×10^6, and a full mass range from 800-1850 m/z was recorded. The HCD trapping gas was optimized for maximum sensitivity for intact proteins. […]

For C=CC(=O)N1CC2(CCN(c3nc(OC[C@@H]4CCCN4C)nc4c(F)c(-c5c(C)ccc6[nH]ncc56)c(Cl)cc34)CC2)C1 [Compound I-6, 1-(7-(6-chloro-8-fluoro-7-(5-methyl-1H-indazol-4-yl)-2-(((S)-1-methylpyrrolidin-2-yl)methoxy)quinazolin-4-yl)-2,7-diazaspiro[3.5]nonan-2-yl)prop-2-en-1-one], which Binding % is on record?
The Binding % was “+++ (+++ indicates binding activity greater than 85% at 10 minutes)”.

Which Binding % does the source give for C=CC(=O)N1CC2(CCN(c3nc(OC[C@@H]4CCCN4C)nc4c(F)c(-c5c(C)ccc6cnn(C)c56)c(Cl)cc34)CC2)C1 [Compound I-2, 1-(7-(6-chloro-7-(1,6-dimethyl-1H-indazol-7-yl)-8-fluoro-2-(((S)-1-methylpyrrolidin-2-yl)methoxy)quinazolin-4-yl)-2,7-diazaspiro[3.5]nonan-2-yl)prop-2-en-1-one] here?
Its Binding % is “+++ (+++ indicates binding activity greater than 85% at 10 minutes)”.

With C=CC(=O)N1CC2(CCN(c3nc(OC[C@@H]4CCCN4C)nc4c(F)c(-c5c(C)ccc6cnn(C)c56)c(Cl)cc34)C2)C1 [Compound I-1, 1-(6-(6-chloro-7-(1,6-dimethyl-1H-indazol-7-yl)-8-fluoro-2-(((S)-1-methylpyrrolidin-2-yl)methoxy)quinazolin-4-yl)-2,6-diazaspiro[3.4]octan-2-yl)prop-2-en-1-one] as the compound, how does the Binding % read?
The Binding % was “++ (++ indicates binding activity from 50 to 85% at 10 minutes)”.

“1-(6-(7-(5-methyl-1H-indazol-4-yl)-2-(((S)-1-methylpyrrolidin-2-yl)methoxy)-8-(2,2,2-trifluoroethoxy)-6-vinylquinazolin-4-yl)-2,6-diazaspiro[3.4]octan-2-yl)prop-2-en-1-one [Compound I-74]” was tested. Which Binding % did it give?
Its Binding % is “++ (++ indicates binding activity from 50 to 85% at 10 minutes)”.

How did the Binding % turn out when C=CC(=O)N1CC2(CCN(c3c(Cl)c(-c4c(C)ccc5[nH]ncc45)c(OCC(F)(F)F)c4nc(OC[C@@H]5CCCN5C)ncc34)C(C)C2)C1 (stereo partly drawn) [Compound I-76, 1-(7-(6-chloro-7-(5-methyl-1H-indazol-4-yl)-2-(((S)-1-methylpyrrolidin-2-yl)methoxy)-8-(2,2,2-trifluoroethoxy)quinazolin-5-yl)-6-methyl-2,7-diazaspiro[3.5]nonan-2-yl)prop-2-en-1-one] was run?
Its Binding % is “++ (++ indicates binding activity from 50 to 85% at 10 minutes)”.

For C=CC(=O)C1CC2(CCN1c1nc(=O)n(-c3ccccc3C(C)C)c3cc(-c4c(C)ccc5[nH]ncc45)c(Cl)cc13)CNC2 (single isomer, unassigned) [II-5b, 4-(6-acryloyl-2,7-diazaspiro[3.5]nonan-7-yl)-6-chloro-1-(6-isopropylphenyl)-7-(5-methyl-1H-indazol-4-yl)quinazolin-2(1H)-one], which Binding % is on record?
Its Binding % is “++ (++ indicates binding activity from 50 to 85% at 10 minutes)”.

Which Binding % does the source give for C=CC(=O)C1CC2(CCN1c1nc(=O)n(-c3ccccc3C(C)C)c3cc(-c4c(C)ccc5[nH]ncc45)c(Cl)cc13)CNC2 (single isomer, unassigned) [II-5a, 4-(6-acryloyl-2,7-diazaspiro[3.5]nonan-7-yl)-6-chloro-1-(6-isopropylphenyl)-7-(5-methyl-1H-indazol-4-yl)quinazolin-2(1H)-one] here?
The Binding % was “+ (+ indicates binding activity greater than 0% and up to 50% at 10 minutes)”.

For C=CC(=O)N1CC2(CCN(c3nc(OC[C@@H]4CCCN4C)nc4c(F)c(-c5c(C)ccc6cn[nH]c56)c(Cl)cc34)CC2)C1 [Compound I-3, 1-(7-(6-chloro-8-fluoro-7-(6-methyl-1H-indazol-7-yl)-2-(((S)-1-methylpyrrolidin-2-yl)methoxy)quinazolin-4-yl)-2,7-diazaspiro[3.5]nonan-2-yl)prop-2-en-1-one], which Binding % is on record?
The Binding % was “+++ (+++ indicates binding activity greater than 85% at 10 minutes)”.

Which Binding % does the source give for “1-(6-(6-chloro-7-(5-methyl-1H-indazol-4-yl)-2-(((S)-1-methylpyrrolidin-2-yl)methoxy)-8-(2,2,2-trifluoroethoxy)quinazolin-4-yl)-2,6-diazaspiro[3.4]octan-2-yl)prop-2-en-1-one [Compound I-75]” here?
The Binding % was “+++ (+++ indicates binding activity greater than 85% at 10 minutes)”.
